Laboratory results reported in patent publication US20250195521A1 (Revolution Medicines, Inc., priority 2020, published 2025).

Experiments:
[1] = system: SHP2 variants expressed in T-REx-293 (HEK-293) cells; experiment: pERK AlphaLISA in isogenic T-REx-293-SHP2 cells, EGF stimulated; type: cell-based; conditions: SHP2 G503V
Method: Assay data was plotted and EC50 values were determined using four-parameter concentration-response model in GraphPad Prism 7. Data provided are mean+/−standard deviation of duplicate values from representative experiments.

[2] = system: Capan-2 tumors (KRAS G12V/wt); experiment: Capan-2 KRAS G12V/wt xenograft efficacy; type: in vivo, mouse; conditions: RMC-4550 20 mg/kg po every other day; Compound A 100 mg/kg po bid; Day 40
Method: Capan-2 cells were implanted in 50% Matrigel. Animals were randomized and treatment was initiated at average tumor volume of ˜180 mm3. […] Ns=no significance; *** p<0.001 by one-way ANOVA.
Once tumors reached an average size of ˜180 mm3, mice were randomized to treatment groups to start the administration of test articles or vehicle. […] Body weight and tumor volume (using calipers) was measured twice weekly until study endpoints.

[3] = system: KLN205 cells (SHP2 G503V); experiment: CellTiter-Glo viability in KLN205 cells; type: cell-based, mouse; conditions: KLN205, up to highest test concentration of 10 μM
From the text: (§1) In this example, two mouse tumor cell lines, KLN205 (lung squamous cell carcinoma) and PAN02 (pancreatic cancer), were characterized.
(§2) See FIGS. 5A through 5D, which are graphs depicting the pERK AlphaLISA® assay.

[4] = system: PAN02 tumors (SHP2 G503V); experiment: PAN02 syngeneic tumor model (Example 2); type: in vivo, mouse; conditions: PAN02, C57/B6 mice; RMC-4550 40 mg/kg every 2 days oral
PAN02 cells (SHP2 G503V) [5] = experiment: CellTiter-Glo viability in PAN02 cells; type: cell-based, mouse; conditions: PAN02, up to highest test concentration of 10 μM
From the text: as §1, §2

[6] = system: KLN205 cells (SHP2 G503V); experiment: pERK AlphaLISA in KLN205 cells; type: cell-based, mouse; conditions: KLN205, up to highest test concentration of 10 μM
From the text: as §1, §2

[7] = system: LN229.E76K tumors (PTPN11 E76K); experiment: LN229.E76K glioblastoma xenograft (Example 8); type: in vivo, mouse; conditions: PO daily; Compound SOS1-(C) 50 mg/kg, RMC-4550 30 mg/kg, cobimetinib […]
Method: 6-7 week athymic nude mice were implanted with LN229.E76K in 50% matirgel (10×10^6 cells/mouse) subcutaneously in the flank. Once tumors reached an average size of 200 mm^3, mice were randomized into treatment groups to start the administration of test articles or control. All treatments were administered daily by oral gavage. Body weight and tumor volume (using calipers) was measured twice weekly until study endpoint.

PAN02 cells (SHP2 G503V) [8] = experiment: pERK AlphaLISA in PAN02 cells; type: cell-based, mouse; conditions: PAN02, up to highest test concentration of 10 μM
From the text: as §1, §2

[9] = system: KLN205 tumors (SHP2 G503V); experiment: KLN205 syngeneic tumor model (Example 2); type: in vivo, mouse; conditions: KLN205, DBA/2 mice; RMC-4550 30 mg/kg daily oral

## Cc1nc(N2CCC3(CC2)CO[C@@H](C)[C@H]3N)c(CO)nc1-c1cccc(Cl)c1Cl [RMC-4550]
[1]
  IC50: > 30 µM
[2]
  TGI: 39%
[3]
  inhibition of cell growth: low or moderate inhibition
[4]
  tumor growth inhibition: less than 50%
PAN02 cells (SHP2 G503V) [5]
  inhibition of cell growth: low or moderate inhibition
[6]
  inhibition of pERK: low or moderate inhibition
[7]
  tumor growth inhibition (TGI): 7%
PAN02 cells (SHP2 G503V) [8]
  inhibition of pERK: low or moderate inhibition
[9]
  tumor growth inhibition: less than 50%
